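The compound was tested at five concentrations on cells cultured in 96-well plates, with a 48-hour exposure period. Definition used: TGI = concentration required for complete inhibition of growth.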
Columns and labels:
Test in all cases: NCI tumour cell line growth inhibition, 48 h
[1] = test system: 786-0 renal
[2] = test system: A549 NSCLC
[3] = test system: ACHN renal
[4] = test system: CAKI-1 renal
[5] = test system: CCRF-CEM leukemia
[6] = test system: COLO 205 colon
[7] = test system: DLD-1 colon
[8] = test system: DMS 273 small cell lung
[9] = test system: EKVX NSCLC
[10] = test system: HCC-2998 colon
[11] = test system: HCT-116 colon
[12] = test system: HCT-15 colon
[13] = test system: HL-60(TB) leukemia
[14] = test system: HOP-18 NSCLC
[15] = test system: HOP-62 NSCLC
[16] = test system: HOP-92 NSCLC
[17] = test system: HT29 colon
[18] = test system: IGROV1 ovarian
[19] = test system: K-562 leukemia
[20] = test system: KM12 colon
[21] = test system: KM20L2 colon
[22] = test system: LOX IMVI melanoma
[23] = test system: LXFL 529 NSCLC
[24] = test system: M14 melanoma
[25] = test system: M19-MEL melanoma
[26] = test system: MALME-3M melanoma
[27] = test system: MOLT-4 leukemia
[28] = test system: NCI-H226 lung
[29] = test system: NCI-H23 lung
[30] = test system: NCI-H460 lung
[31] = test system: OVCAR-3 ovarian
[32] = test system: OVCAR-4 ovarian
[33] = test system: OVCAR-5 ovarian
[34] = test system: OVCAR-8 ovarian
[35] = test system: RPMI-8226 leukemia
[36] = test system: RXF 393 renal
[37] = test system: RXF-631 renal
[38] = test system: SF-268 CNS
[39] = test system: SF-295 CNS
[40] = test system: SF-539 CNS
[41] = test system: SK-MEL-2 melanoma
[42] = test system: SK-MEL-28 melanoma
[43] = test system: SK-MEL-5 melanoma
[44] = test system: SK-OV-3 ovarian
[45] = test system: SN12C renal
[46] = test system: SNB-19 CNS
[47] = test system: SNB-75 CNS
[48] = test system: SNB-78 CNS
[49] = test system: SR leukemia
[50] = test system: SW-620 colon
[51] = test system: TK-10 renal
[52] = test system: U251 CNS
[53] = test system: UACC-257 melanoma
[54] = test system: UACC-62 melanoma
[55] = test system: UO-31 renal
[56] = test system: XF 498 CNS
[57] = test system: A498 renal
[58] = test system: DMS 114 small cell lung
[59] = test system: NCI-H522 lung

Measured: TGI

O=c1nc2sc3ccccc3c(=O)n2[nH]1
not listed: [57] | [58] | [59]
> 100 µM: all other assays above

Cc1cccc(C)c1NC(=O)CCC(=O)NC(N)=NC#N
not listed: [8] | [41] | [48]
> 100 µM: all other assays above

COC(=O)C1=CC2C(=O)OC1C1C(=O)NC(=O)C21 (stereo not given)
not listed: [9] | [12] | [28] | [33] | [36] | [41]
> 100 µM: all other assays above
